Data as given in patent US4317823A, “Pyrazolobenzodiazepinones, their intermediates, their compositions and their use” (Byk Gulden Lomberg Chemische Fabrik GmbH, priority 1979, dated 1982).

Tests used:
Shay rats = experiment: Anti-ulcerogenic action (protective action on the stomach), Shay rats: pylorus ligature plus oral acetylsalicylic acid, ulcer index; assay type: in vivo; details: for TQ LD50/ED50 (therapeutic quotient): LD50 i.v. mice / ED50 p.o. rats; for ED50: Rattus norvegicus, Shay rats, oral 1 hour before pylorus ligature, dose which reduces the ulcer index by 50% compared with the control group, read-out: Protective action on the stomach ED50 administered perorally to rats; for dose dependence of the anti-ulcerogenic action (dose/action curve): Shay model
Experimental: ED50 = the dose which reduces the ulcer index for the group treated
by 50% compared with the control group
The anti-ulcerogenic action is tested by a method using the so-called Shay rats:
(§1) Ulcers are provoked in rats which have been starved for 24 hours (female rats, 180 to 200 g, 4 animals in a cage with a high grille) by means of a pylorus ligature (under anaesthesia with diethyl ether) and oral administration of 100 mg/10 ml/kg of acetylsalicylic acid. The substances to be tested are administered orally (10 ml/kg) 1 hour before the pylorus ligature. The closure of the wound is effected by means of Michel's clips. The animals are killed 4 hours afterwards under ether anaesthesia by dislocating the atlas, and the stomach is cut out. The stomach is opened longitudinally and is fixed on a cork slab, the quantity of gastric juice secreted (volume) having been determined beforehand; the number and size (=diameter) of ulcers present are determined by means of a stereomicroscope at a 10-fold magnification. The product of the degree of severity (in accordance with the following rating scale) and the number of the ulcers is used as an individual ulcer index.
ulcer diameter 0.1-1.4 mm 1
The reduction in the average ulcer index in each group treated compared with that of the control group (=100%) is used as a measure of the anti-ulcerogenic effect. The ED50 indicates the dose which reduces the average ulcer index by 50%.

stomach secretion = experiment: Inhibition of stomach secretion (gastric juice volume) in rats; assay type: in vivo, rat; details: 4 hours after administration of the antiulcerogenic ED50
Experimental: *% inhibition = inhibition (in %) of stomach secretion 4 hours after
administration of the antiulcerogenic ED50
as §1

[1] = Determination of toxicity, intravenous LD50 in mice; details: mouse, in vivo, female NMRI mice, 7 days observation, 5 animals per dose, read-out: Toxicity LD50 administered intravenously to mice
Experimental: LD50 = the dose at which 50% of the animals die
The toxicity investigations are carried out on female NMRI mice (body weight 22 to 26 g). The animals (5 animals per dose) receive feed and water ad lib. Various doses of the substances are administered intravenously (duration of injection 1 minute). The observation period is 7 days. The LD50 (the dose at which 50% of the animals die) is determined by means of a linear regression.

Row | SMILES | TQ LD50/ED50 (therapeutic quotient) (Shay rats) | ED50 (Shay rats) | increase in the anti-ulcerogenic action above the ED50 (Shay rats; even at 300 mg/kg) | dose dependence of the anti-ulcerogenic action (dose/action curve) (Shay rats; rats) | % inhibition of stomach secretion in rats (stomach secretion) | inhibitory effect (anti-ulcerogenic action) (Shay rats; rats, 30 mg/kg) | LD50 at 168 h [1]
1 | CC1(C)[C@@H](OC(=O)CCC(=O)O)CC[C@]2(C)[C@H]3C(=O)C=C4[C@@H]5C[C@@](C)(C(=O)O)CC[C@]5(C)CC[C@@]4(C)[C@]3(C)CC[C@@H]12 [Compound 1, carbenoxolone, reference compound] | 4.1 | ~70 mg/kg | not possible to achieve any substantial increase in the anti-ulcerogenic action | flattens out very considerably | 7% |  | 
2 | Cc1nn(C)c2c1N(C(=O)CN1CCN(C)CC1)c1ccccc1NC2=O [Compound 2, 1,3-dimethyl-4-[(4-methylpiperazin-1-yl)acetyl]-1,4,9,10-tetrahydropyrazolo[4,3-b][1,5]benzodiazepin-10-one] | 84.0 | 2.5 mg/kg |  | depends strictly on the dose | 20% | up to 95% | 210 mg/kg
